In the case of O=[N+]([O-])c1ccc(F)cc1CO, the melting point is reported as 82 to 86 °C.
With O=C(NNc1ccc(NC(=S)Nc2ccccc2)cc1)c1ccc(Cl)cc1 the melting point was 198 to 199 °C.
With CCOC(=O)COC(=O)c1cccnc1C#N the melting point was 74 °C.
Cn1cnc2c1c1n[nH]c(=O)n1c(=O)n2Cc1ccccc1 gave a melting point of 295 °C.
Compound Cc1c2c(nc3ccccc13)CCN(C(=O)Oc1ccccc1)CC2 has a melting point of 150 °C.
Cc1c(Cl)cc2c(c1Cl)OC(C(F)(F)F)C(C(=O)O)=C2 (configuration not stated) gave a melting point of 230 to 231 °C.
In the case of CCOC(=O)CCCOc1nn2c(-c3ccc(OC)cc3)nnc2c2ccccc12, the melting point is reported as 114 to 117 °C.
In the case of COC(=O)C1=C(C#N)NC(C)=C(P2(=O)OCCCO2)C1c1ccccc1[N+](=O)[O-] (configuration not stated), the melting point is reported as 228 to 229 °C.
C=C1c2c(C)cccc2NC(=O)N1CC(=O)OCC showed a melting point of 151 to 154 °C.
For C[C@@H](S[C@H]1CO[C@H](c2ccc(C(=O)Nc3ccc(C#N)c4ccccc34)cc2)OC1)[C@](O)(Cn1cncn1)c1ccc(F)cc1F, the melting point was 109 °C.
In the case of CCOC(=O)CCC1(c2c[nH]cn2)Cc2ccccc2C1=O (configuration not stated), the melting point is reported as 162 to 165 °C.
Cc1c(OCC(F)(F)F)ccnc1CSc1nc2ccccc2n1NC(=O)OC(C)(C)C gave a melting point of 153 to 155 °C.
For Cc1cccc2[nH]c3c(c(C)nn3-c3ccccn3)c(=O)c12, the melting point was 183 to 186 °C.
Compound CCOC(=O)COc1ccc(CN2C(=O)C3(COc4cc5c(cc43)OCCO5)c3ccccc32)cc1 (configuration not stated) has a melting point of 59 to 61 °C.
Work on Cc1cc(C=O)cc(Oc2nc(OCc3ccccc3)nc(OCc3ccccc3)c2C(C)C)c1 yielded a melting point of 171 to 172 °C.
Nc1cc(-c2c(-c3ccc(Cl)cc3)nc3ccc(N4CC5CNCC5C4)nn23)ccn1 (configuration not stated) gave a melting point of 267 to 270 °C.
With O=C(NC1(c2cccc(F)c2)CCC1)OCc1ccccc1 the melting point was 81 to 82 °C.
CCOC(=O)C1CCN(c2cc(-c3ccccc3)nc3ccc(F)cc23)CC1 gave a melting point of 120 to 124 °C.
With CC(Oc1ccc(Oc2ccccc2)cc1)(C(=O)O)C(F)(F)F (configuration not stated) the melting point was 111 to 112 °C.
In the case of COc1ccc(N2CCOCC2)c2sc(-c3nc4c([nH]3)CCN(C(C)=O)CC4)nc12, the melting point is reported as 195 to 197 °C.
Compound COc1ccc(C(=O)Cl)cc1I has a melting point of 58 °C.
With COc1c(Br)ccc2oc(C=O)c(C)c12 the melting point was 81 to 82 °C.
O=C(CCCCCCS(=O)(=O)c1ccccc1)c1ncco1 gave a melting point of 55 to 56 °C.
For CCOC(COC1CC2C3CCC4=CC(=O)CCC4(C)C3(F)C(O)CC2(C)C1(O)C(=O)CO)OCC (configuration not stated), the melting point was 208 to 210 °C.
O=c1[nH][nH]c(=O)c2c(O)c(-c3ccccc3)ncc12 gave a melting point greater than 300 °C.
Compound NCc1ccc2[nH]ccc2c1 has a melting point of 114 to 115 °C.
In the case of COC(=O)COc1cccc(NC(=O)c2cc(-c3cccc(F)c3)ccc2F)c1, the melting point is reported as 103 to 104 °C.
For CN1C(=O)CC2(Cc3cc4ccccc4n3C2)C1=O (configuration not stated), the melting point was 154 to 156 °C.
Compound CCCCCCCCC#CCC#CCC#CCSCC(=O)NCC has a melting point of 59 °C.
CN1CCC(c2c[nH]c3ccc(C(=O)c4ccc(F)cc4)cc23)CC1 gave a melting point of 89 °C.
Work on Cc1nc(C)c(Cl)c(NCc2cccc(O)c2)n1 yielded a melting point of 194 to 197 °C.
With CCn1cc(CC(=O)OC)c(O)n1 the melting point was 72 to 73 °C.
c1ccc(-c2nc(-c3ccc4c(c3)OCO4)sc2-c2ccccc2)cc1 showed a melting point of 121 to 124 °C.
Cc1nc2ccc3c(c2o1)C(=O)CC3 gave a melting point of 106 to 107 °C.
CC1(C)C2=C(CCC2=O)c2ccccc21 gave a melting point of 114 °C.
CC(=O)Nc1cnc(N2CCN(CCCC(=O)c3ccc(F)cc3)CC2)cc1NC(C)=O showed a melting point of 206 to 209 °C.
With O=C(C[C@H](NC(=O)C(F)(F)F)C(=O)O)c1ccc2oc3ccccc3c2c1 the melting point was 140 to 144 °C.
CCCCc1c(C(=O)O)ccc2ccc(OC)cc12 gave a melting point of 123 to 125 °C.
For OCc1cc(-c2ccc3nnn(Cc4ccc5ncccc5c4)c3n2)cs1, the melting point was 188 to 191 °C.
Work on C=CCNC(=O)N1CC(Oc2cccc(C(F)(F)F)c2)C1 yielded a melting point of 75 to 76 °C.
Compound CCCCc1csc2ccc3[nH]c4c(c3c12)CN(C)CC4 has a melting point of 192 to 193 °C.
Compound CCC(CC)n1ncn(-c2ccc(N3CCNCC3)cc2)c1=O has a melting point of 135 to 137 °C.
For CNC(=O)c1cc2c(OC[C@@H](O)CN3CCC(c4ccc5ccccc5c4)CC3)cccc2n1C, the melting point was 180 to 183 °C.
For CCC(Cl)c1nc2c(C(F)(F)F)cccc2c(=O)o1 (configuration not stated), the melting point was 65 to 70 °C.
For O=C(O)C(=O)c1ccc(OCC(=O)N2CCN(c3ccccc3)CC2)cc1, the melting point was 188 to 192 °C.
Work on CCOC(=O)c1ncn(-c2ccc(C(F)(F)F)cc2N)c1C yielded a melting point of 185 to 186 °C.
c1ccc(Cn2c3ccccc3c3ccccc32)cc1 gave a melting point of 121 to 122 °C.
For CS(=O)(=O)Nc1cc2oc(C(N)=O)cc(=O)c2cc1Oc1ccccc1, the melting point was greater than 250 °C.
Work on C=Nn1nc(NC)n(OCC)c1=O yielded a melting point of 169 °C.
In the case of COc1ccc(Cc2ccc3c(c2)OCO3)c(OC)c1, the melting point is reported as 51 °C.
In the case of C#CCOc1cc(C=O)ccc1OC, the melting point is reported as 66 to 67 °C.
CCCCCS(=O)(=O)NC(=O)/C=C/c1ccc(OC(COCC)COCC)cc1Oc1ncc(C(F)(F)F)cc1Cl gave a melting point of 83 to 85.5 °C.
Work on O=C(O)c1ccc(Cc2ccc(O)cc2)cn1 yielded a melting point of 213 to 215 °C.
CCC(CC)N1CCN(C(=O)Oc2ccc(OC)cc2)CC1 gave a melting point of 52 to 54 °C.
CN(C)CCCN1N=C2C(=Cc3ccccc3)CS(=O)CC2C1c1ccccc1 (configuration not stated) gave a melting point of 155 to 160 °C.
For CCOC(=O)C1CCc2c(n(C(=O)c3ccc(Cl)cc3)c3ccc(Cl)cc23)C1 (configuration not stated), the melting point was 129 to 132 °C.
For O=C(O)c1ccccc1C(=O)c1ccccc1Cl, the melting point was 112 to 116 °C.
Work on CCCC1=C(C#N)C(c2ccccc2Cl)c2c(n[nH]c2-c2ccc3ccccc3c2)N1 (configuration not stated) yielded a melting point greater than 270 °C.
Work on O=C1c2ccccc2CCC1CN1CCC2(CC1)C(=O)NCN2c1ccccc1 (configuration not stated) yielded a melting point of 170 to 173 °C.
Compound CCCCCCCCCCCCCCN(CCCCCCCCCCCCCC)S(=O)(=O)c1ccc(C)cc1 has a melting point of 54 °C.
CCCOc1ccc(C(=O)CBr)cc1 gave a melting point of 36 to 38 °C.
With NCCNC(=S)Nc1c(Cl)cccc1Cl the melting point was 136 to 138 °C.
In the case of COc1ccc(-c2nc(N)sc2CCC2CCCCC2)c(OC)c1, the melting point is reported as 122 °C.
Compound COc1cc(CCCN(C)Cc2ccc(OC)c(OC)c2)ccc1NC(=O)c1cccc2c(=O)c3cccc(OC)c3[nH]c12 has a melting point of 105 °C.
With CC(C)OC(=O)c1cc(-n2c(=O)[nH]c3c(c2=O)CCC3)c(F)cc1Cl the melting point was 204 to 207 °C.
With O=C(NCCCCCCNC(=O)c1ccc2c(c1)OCO2)c1ccc2c(c1)OCO2 the melting point was 183 to 185 °C.
For CCN(CC)CCOC(=O)N1CCC(NC(=O)c2ccccc2)CC1, the melting point was 78 to 82 °C.
Compound C[C@H]1C=CC(S(=O)(=O)c2ccccc2)=C[C@H](C)[C@H]1O[Si](C)(C)C(C)(C)C has a melting point of 81.6 to 83.6 °C.
Work on O=C(O)c1cn(C2CC2)c2nc(N3CCC(c4ccncc4)C3)c(F)cc2c1=O (configuration not stated) yielded a melting point of 223 to 225 °C.
In the case of O=C(CC1CCCCC1)c1ccccc1, the melting point is reported as 61 to 67 °C.
With CC(=O)CS(=O)(=O)c1cccc2ccccc12 the melting point was 65 °C.
Work on CCOC(=NC(=O)c1ccc(OC)cc1)N1Cc2ccccc2-c2ccccc2C1 yielded a melting point of 71 to 78 °C.
COc1ccc2c(c1)CCC(NCC(=O)O)C2 (configuration not stated) showed a melting point of 195 to 198 °C.
With COc1ccc(COCC(O)Cn2ccnc2)cc1 (configuration not stated) the melting point was 96 to 98 °C.
Work on CC(C)C(=O)O[C@H]1[C@H](C)OC(=O)[C@@H](NC(=O)OC(C)(C)C)COC(=O)[C@@H]1CI yielded a melting point of 168 to 171 °C.
CCCOC(=O)C=CC1C(C(=O)O)C1(C)C (configuration not stated) gave a melting point of 59 °C.
COC(=O)C1(C(=O)OC)Cc2cc(Br)ccc2N1 gave a melting point of 113 to 155 °C.
Work on CCN(CC)C1CCCCC1Oc1ccc(Cc2c(-c3ccc(OCCN4CCCC4)cc3)sc3cc(O)ccc23)cc1 (configuration not stated) yielded a melting point of 95 to 100 °C.
Nc1c(F)cc(F)c(-n2cc(C(=O)O)c(=O)c3cc(F)c(N4CC[C@H](N)C4)nc32)c1F showed a melting point of 273 to 277 °C.
With CC(C)COC(=O)N1CCN(c2c(C(=O)N3CCN(C)CC3)c3ccccc3n2-c2ccccc2)CC1 the melting point was 132 to 133 °C.
In the case of CC1(C)C(=O)Nc2cc3[nH]c(-c4ccc(O)cc4)nc3cc21, the melting point is reported as 240 °C.
Work on CC(=O)C(C#N)C(=O)C1CC1 (configuration not stated) yielded a melting point of 62 to 63.5 °C.
With CCOC(=O)CCc1cccc(-c2c(CC(=O)Nc3ccc(F)cc3C(F)(F)F)c(=O)oc3ccccc23)c1 the melting point was 163 to 164 °C.
For CCOC(=O)C(C)OCc1cc2nc(Cl)ccc2n1S(=O)(=O)c1ccc2nsnc2c1 (configuration not stated), the melting point was 77 to 79 °C.
With O=C(Cc1ccc2[nH]cc(CCN3C(=O)c4ccccc4C3=O)c2c1)NCc1ccccc1 the melting point was 165 to 166 °C.
CC(=O)OCC(C)(C)C(=O)N(O)Cc1ccccc1Cl gave a melting point of 78 to 80 °C.
CC(C)(C)OC(=O)N1CCNC(=O)C1Cc1ccc(F)cc1 (configuration not stated) showed a melting point of 145 to 147 °C.
Work on Fc1ccc(Nc2ncnc3cnc(N4CCC(N5CCOCC5)CC4)nc23)cc1Cl yielded a melting point of 222 to 224 °C.
O=C(O)CCC(=O)Nc1ccc2[nH]c(=O)c3ccccc3c2c1 gave a melting point of 224 to 228 °C.
For O=C(O)[C@H](Cc1c[nH]c2ccccc12)NC(=O)[C@@H]1C[C@H](S)CN1S(=O)(=O)c1ccc2ccccc2c1, the melting point was 130 °C.
For CCC(C)c1ccccc1SC1=C(O)CC(CCc2ccccc2)(c2ccccc2)OC1=O (configuration not stated), the melting point was 67 to 68 °C.
Cc1cc(CCCCCOc2c(C)cc(-c3nc(C)no3)cc2C)on1 gave a melting point of 54 to 56 °C.
Work on CCOC(=O)c1oc2cccc(COC)c2c1C yielded a melting point of 45 to 47 °C.
For O=C(O)C(CC1CCCC1)c1ccc(-c2ccncc2)cc1 (configuration not stated), the melting point was 118 to 121 °C.
With CC(C)(C)S(=O)(=O)N1C[C@@H](F)C[C@@H]1c1cc(F)cc(C#N)c1 the melting point was 182 to 184 °C.
For O=S(=O)(c1ccc(Cl)cc1)N(Cc1ccc(OC2CCOCC2)nc1)C1CCOCC1, the melting point was 123 to 125 °C.
With O=C(c1ccc([N+](=O)[O-])cc1)N1CC2CC2(c2ccc(Cl)cc2)C1 (configuration not stated) the melting point was 177 to 180 °C.
For N#Cc1ccc(OC[C@H]2C[C@@H](O)CN2c2ccc(C#N)c3ccccc23)c2ccccc12, the melting point was 123 to 126 °C.
With Cc1scc2c1N(C(=O)NCCN1CCC(CCCN3CCCCC3)CC1)c1ccccc1NC2=O the melting point was 170 to 171 °C.
COc1nc(C)c(N)cc1C showed a melting point of 39.8 to 41 °C.
Work on C=C(F)C(=O)Oc1c(Cl)c(Cl)c(Cl)c(Cl)c1Cl yielded a melting point of 90 to 92 °C.
CCOC(=O)C1CCN(C(=O)CN2CCN(c3ccncc3)CC2)CC1 showed a melting point of 102 to 104 °C.
